Where “and” joins values, the source holds several entries; their conditions need not be identical. Equal entries are not always repeated.
Assays:
[1] = target: T1, leukotriene receptor (guinea pig lung membranes) (Cavia porcellus, UniProt Q2NNR5); assay: Binding of ^3 H-Leukotriene D4 to Guinea Pig Lung Membranes (RBL); details: 0.2 nM ^3 H-LTD4, 60 min, 25° C.; read-out: Concentration (M) for 50.0 % Inhibition, IC (RBL)
T1 construct: 20 mg original tissue wet weight of guinea pig lung; tissue Kuiper Rabbit Farm, Gary, IN (animals); host or cells: guinea pig lung, crude membranes
T1 sequence (Q2NNR5 1-340): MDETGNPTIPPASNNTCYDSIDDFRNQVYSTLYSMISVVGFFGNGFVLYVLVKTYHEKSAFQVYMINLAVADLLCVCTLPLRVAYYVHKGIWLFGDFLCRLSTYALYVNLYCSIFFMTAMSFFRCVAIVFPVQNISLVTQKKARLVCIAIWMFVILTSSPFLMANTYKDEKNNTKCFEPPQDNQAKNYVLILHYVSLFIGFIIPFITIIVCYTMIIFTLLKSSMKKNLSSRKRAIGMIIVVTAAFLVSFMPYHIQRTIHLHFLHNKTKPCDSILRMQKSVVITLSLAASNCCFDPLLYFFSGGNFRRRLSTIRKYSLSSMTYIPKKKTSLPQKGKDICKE
Protocol: Additionally, the activity, of the compounds having the Formula I of the present invention is determined by the well known leukotriene receptor binding assay that is described by R. F. Bruns, W. J. Thomsen and T. A. Pugsley in Life Sciences, 33, 645 (1983) or the Herxheimer in vivo antiallergy test described in H. Herxheimer, J. Physiol. (London), Vol. 177, p. 251 (1952).
Binding of ^3 H-Leukotriene D4 to Guinea Pig Lung Membranes (RBL)
[14,15-^3 H]leukotriene D4 (^3 H-LTD4) (25 Ci/mmol and 40 Ci/mmol) is purchased from New England Nuclear. Unlabeled LTC4 is a gift of Ono Pharmaceuticals (Japan). LTC4, LTD4, and LTE4 are purchased as methyl esters from Paesel GmbH (Frankfurt, W. Germany). Concentrations of the Paesel leukotrienes are calculated from their absorbance at 280 nm. Leukotriene esters are saponified overnight under N2 in 3.3% potassium carbonate at room temperature. Tritiated leukotrienes are stored as received from New England Nuclear at -20° C. Ono LTC4 (5 μg/ml) is stored at -60° C. in phosphate buffer pH 6.8. Saponified Paesel leukotrienes are stored at -60° C. in 3.3% potassium carbonate (pH 9.0-9.5). Aliquots of leukotrienes are taken from stock solutions immediately after thawing, after which the stock solutions are immediately refrozen. 2-Amino-2-(hydroxymethyl)-1,3-propanediol (Tris) is Sigma pH 7.7 pre-set crystals, and dimethylsulfoxide is Aldrich Gold Label.
Preparation of crude lung membranes
Two pairs of lungs (1.3 g) from freshly sacrificed 300 g male guinea pigs (older animals gave substantially lower binding) from Kuiper Rabbit Farm, Gary, IN are disrupted with a Polytron PT 10 (setting 4) for 30 seconds in 20 ml ice-cold 50 mM Tris adjusted with HCl to pH 7.7 at 25° C. (Tris buffer), filtered through a single layer of gauze to remove connective tissue, and centrifuged at 50,000 xg for ten min. The pellet is resuspended by homogenization with a Polytron in 20 ml Tris buffer, centrifuged at 50,000 xg for ten min., resuspended, incubated at 37° C. for 30 minutes, and centrifuged again. The final pellet is resuspended in Tris buffer and either used fresh or stored at -70° C.
All incubations are in triplicate for 60 minutes at 25° C. in 12×75 mm polystyrene tubes containing 1 ml Tris buffer with 20 mg original tissue wet weight of guinea pig lung nmembranes, 0.2 nM ^3 H-LTD4 (6,000-11,000 cpm), 10 mM MgCl2, and 1% dimethylsulfoxide Leukotrienes are diluted in Tris buffer. All other test compounds dissolved at 10 mM in dimethylsulfoxide on the same day as the experiment, and diluted in dimethylsulfoxide to 100× the final incubation concentration. Control incubations receive an equal volume (10 μl) of dimethylsulfoxide; the resulting concentration of dimethylsulfoxide had no effect on binding. ^3 H-LTD4 is diluted to 2 nM in Tris buffer. The membrane suspension (20 mg/0.89 ml) contains sufficient MgCl2 to give 10 mM final concentration in the incubation. […] All additions are performed at 0° C. Immediately after the last addition, the incubation is initiated by agitating the rack of tubes on a vortex mixer and warming to 25° C. in a water bath. Tubes are vortexed at least once more during the incubation to ensure that the membranes remained suspended. Incubations are terminated after 60 minutes by filtering under reduced pressure through 25 mm Whatman GF/B filters followed by rapid washing three times with 4 ml of ice-cold Tris buffer. Filters are added to scintillation vials with 8 ml Formula 947 (New England Nuclear), left overnight, shaken, and the radioactivity counted in a scintillation counter (efficiency 40%). Nonspecific binding, defined as binding of ^3 H-LTD4 in the presence of 100 nM LTC4, is 300-500 cpm for all lots of ^3 H-LTD4. Binding to the filters in the absence of tissue is about 100 cpm, and is not affected by unlabeled LTC4. Specific binding, defined as total binding minus nonspecific binding, varied considerably from lot to lot of ^3 H-LTD4. […]

[2] = target: Human Leukocyte Lipoxygenase; assay: Human Leukocyte Lipoxygenase Assay (LDA-H); assay type: biochemical; details: for IC50: acetone-pentane powder enzyme, 234 nm, 24° C., 5 min preincubation, read-out: Concentration (M) for 50.0 % Inhibition, IC (LDAH)
Protocol: Human Leukocyte Lipoxygenase Assay (LDA-H)
Whole blood is collected from normal volunteers and spun in a refrigerated centrifuge for four minutes at 1°-6° C. at 3800 g. The buffy coat is manually separated and washed twice with chilled 0.83% NH4 Cl and centrifuged at 1000 RPM for ten minutes at 4° C. The white cell is suspended in culture media-EMEM supplemented with 6% Agamma human serum, tricine buffer, and neomycin and recentrifuged at 1000 g to yield a pellet containing the leukocytes used for the preparation of the acetone pentane powder.
The acetone-pentane powder is prepared utilizing a modification of the procedure reported for human platelet lipoxygenase. See Siegel, et al, Arachidonate Metabolism via Lipoxygenase and 12-L-hydroperoxy-5 Eicosatetraenoic Acid Peroxidase Sensitive to Antiinflammatory Drugs, Proc. Natl. Acad. Sci., USA 77: 308, 1980 and D. P. Wallach and V. R. Brown, A Novel Preparation of Human Platlet Lipoxygenase, Biochem. Biophys. Acta. 663: 361, 1981. Buffy coat prepared above is resuspended in 5-7 volumes of cold 0.1M Tris buffer, pH 7.4 containing 0.154M NaCl. The suspension is centrifuged at 13,300 g for ten minutes at 4° C. The resultant pellet is retained, resuspended in five volumes of cold acetone, recentrifuged at 13,300 g and resuspended in five volumes of cold pentane. The pentane suspension is centrifuged for ten minutes at 13,300 g to give a pellet which is dried in the cold under vacuum with periodic pulverization. The dry powder is stable for several weeks when stored at -80° C.
Enzyme stock solution is prepared in the following manner. About 15 mg of the acetone-pentane powder is suspended in 4 ml of cold tris buffer (0.1M, pH 7.4), allowed to stand for five minutes, and homogenized thoroughly. The homogenate is sonicated three times for 15 seconds each time, diluted to 7 ml with cold tris buffer (0.1M, pH 7.4), and centrifuged at 4° C. for 60 minutes at 13,300 g. the supernatent is retained and diluted to a total of 10 ml with cold tris buffer (0.1M, pH 7.4) to give the stock enzyme solution. Additional dilutions of 2-50 fold are done as necessary to locate optimal enzyme reaction rate in the assay described below.
Substrate solution is prepared at 100 μM or 1.0 μM concentrations of arachidonic acid or linoleic acid in 0.1M tris buffer, pH 9.0 containing 20% ethanol.
The enzyme reaction is followed spectrophotometrically by the appearance of a conjugated diene product at 234 nm. The reaction is monitored at 24° C. using a Gilford Model 2600 spectrophotometer. […] The effects of inhibitors on the reaction are compared with control reactions run under indentical conditions. Routinely, each compounds of the present invention is incubated with the enzyme for five minutes prior to addition of substrate to initiate the reaction. Inhibition expressed as IC50 as molar concentration of the compound required to reduce reaction rate to 50% control.

| Molecule | IC50 [1] | IC50 [2] [M] | % Inhibition (LDAH) ([2]; Concentration 8.00 E -5 M) [%] | % Inhibition (LDAH) ([2]; Concentration 2.50 E -5 M) [%] |
| --- | --- | --- | --- | --- |
| O=C(Nc1ccc(CCc2ccc(Cl)c(Cl)c2)cc1)C1CS(=O)(=O)c2ccccc2C1=O (stereo not shown) [Example 11, N-[4-[2-(3,4-Dichlorophenyl)ethyl]phenyl]-3,4-dihydro-4-oxo-2H-1-benzothiopyran-3-carboxamide, 1,1-dioxide] | 3.64e-06 M | 1.1e-06 | – | – |
| O=C(Nc1ccc(CCc2cc(O)cc(O)c2)cc1)C1=C(O)c2ccccc2S(=O)(=O)C1 [Example 33, N-[4-[2-(3,5-Dihydroxyphenyl)ethyl]phenyl]-4-hydroxy-2H-1-benzothiopyran-3-carboxamide, 1,1-dioxide] | 8.2e-05 M | 2.5e-05 | – | – |
| COc1ccccc1CCc1ccc(NC(=O)C2=C(O)c3ccccc3S(=O)(=O)C2)cc1 [Example 37, 4-Hydroxy-N-8 4-[2-(2-methoxyphenyl)ethyl]phenyl-2H-1-benzothiopyran-3-carboxamide, 1,1-dioxide] | 1.9e-05 M | – | 0.0 | – |
| O=C(Nc1ccc(CCc2ccccc2O)cc1)C1=C(O)c2ccccc2S(=O)(=O)C1 [Example 38] | 6.68e-06 M | – | – | 0.0 |
| COc1cccc(CCc2ccc(NC(=O)C3CS(=O)(=O)c4ccccc4C3=O)cc2)c1 (stereo not shown) [Example 39] | 2.48e-05 M | 5.7e-05 | – | – |
| O=C(Nc1ccc(CCc2ccc(O)cc2)cc1)C1CS(=O)(=O)c2ccccc2C1=O (stereo not shown) [Example 40] | 5.6e-05 M | 8.2e-05 | – | – |
| Cc1ccccc1CCc1ccc(NC(=O)C2=C(O)c3ccccc3S(=O)(=O)C2)cc1 [Example 43] | 2.06e-05 M | – | 0.0 | – |
| O=C(Nc1ccc(CCc2ccc(C(F)(F)F)cc2)cc1)C1CS(=O)(=O)c2ccccc2C1=O (stereo not shown) [Example 44] | 3.02e-06 M | – | – | 0.0 |
| Cc1ccc(CCc2ccc(NC(=O)C3CS(=O)(=O)c4ccccc4C3=O)cc2)cc1 (stereo not shown) [Example 45] | 9.44e-06 M | – | 0.0 | – |
| CCOC(=O)c1ccc(CCc2ccc(NC(=O)C3CS(=O)(=O)c4ccccc4C3=O)cc2)cc1 (stereo not shown) [Example 47, 4-[2-[4-[[(3,4-Dihydro-4-oxo-2H-1-benzothiopyran-3-yl)carbonyl]amino]pheyl]ethyl]benzoic acid, ethyl ester, 1,1-dioxide] | 1.11e-05 M | – | 0.0 | – |
| CC(=O)Nc1ccc(CCc2ccc(NC(=O)C3CS(=O)(=O)c4ccccc4C3=O)cc2)cc1 (stereo not shown) [Example 49] | 0.000149 M | 3.5e-05 | – | – |
| CCCCCCc1ccc(NC(=O)C2CS(=O)(=O)c3ccccc3C2=O)cc1 (stereo not shown) [Example 58, N-(4-Hexylphenyl)-3,4-dihydro-4-oxo-2H-1-benzothiopyran-3-carboxamide, 1-1-dioxide] | 8.47e-06 M | – | 0.0 | – |
| CCCCCCCCc1ccc(NC(=O)C2CS(=O)(=O)c3ccccc3C2=O)cc1 (stereo not shown) [Example 59, 3,4-Dihydro-N-(4-octylphenyl)-4-oxo-2H-1-benzothiopyran-3-carboxamide, 1,1-dioxide] | 7.29e-06 M | – | – | 0.0 |
| CCCCCCCCCCCCc1ccc(NC(=O)C2CS(=O)(=O)c3ccccc3C2=O)cc1 (stereo not shown) [Example 61, N-(4-Dodecylphenyl)-3,4-dihydro-4-oxo-2H-1-benzothiopyran-3-carboxamide, 1,1-dioxide] | 2e-05 M and 2.05e-05 M | 1e-06 | – | – |
| CCCCCCCCCCc1ccc(NC(=O)C(=O)c2sc3ccc(Cl)cc3c2O)cc1 [Example 135, Benzo[b]thiophene-2-acetamide, 5-chloro-N-(4-decylphenyl)-3-hydroxy-α-oxo] | – | 2.5e-05 | – | – |
| COc1ccc(CCc2ccc(NC(=O)C(=O)C3=C(O)c4ccccc4OC3)cc2)cc1OC [Example 152] | – | 5.7e-07 | – | – |
| O=C(Nc1ccc(CCc2ccc(O)c(O)c2)cc1)C1Oc2c(n(-c3ccccc3)c3ccccc23)C1=O (stereo not shown) [Example 166, 2H-Furo[3,2-b]indole-2-carboxamide, N-[4-[2-(3,4-dihydroxyphenyl)ethyl]phenyl]-3,4-dihydro-3-oxo-4-phenyl] | – | 2.7e-05 | – | – |
| COc1ccc(CCc2ccc(NC(=O)C(=O)c3[nH]c4cc(C)c(C)cc4c3O)cc2)cc1OC [Example 175, 1H-Indole-2-acetamide, N-[4-[2-(3,4-dimethoxyphenyl)ethyl]phenyl]-3-hydroxy-5,6-dimethyl-α-oxo] | – | – | – | 0.0 |
| Cc1cc2[nH]c(C(=O)C(=O)Nc3ccc(CCc4ccc(O)c(O)c4)cc3)c(O)c2cc1C [Example 177, 1H-Indole-2-acetamide, N-[4-[2-(3,4-dihydroxyphenyl)ethyl]phenyl]-3-hydroxy-5,6-dimethyl-α-oxo] | – | 8e-05 | – | – |
| N-[4-[3-(3,4-Dihydroxyphenyl)propyl]phenyl]-3,4-dihydro-2H-1-benzothiopyran-3-carboxamide, 1,1-dioxide [Example 22] | – | 1.3e-05 | – | – |

Source: US4868195A, “Novel enolamides, pharmaceutical compositions and methods of use thereof for activity as modulators of the arachidonic acid cascade” (Warner-Lambert Company, priority 1988, dated 1989)
